Measurements reported in US8008329B2 (Dong Wha Pharmaceutical Co., Ltd., priority 2008, dated 2011).
Where “and” joins values, the source holds several entries; their conditions need not be identical. Equal values may be shown once. Marks after values point to notes of the source that are not given here.

How the values were obtained:
[1] = test system: osteoclast differentiation; experiment: Osteoclast differentiation in co-culture of mouse bone marrow cells and calvarial osteoblasts, TRAP staining (Examples 1-7); type: cell-based; settings: day 7
[2] = test system: osteoclast differentiation; experiment: Osteoclast differentiation in co-culture of mouse bone marrow cells and ST2 cells, TRAP staining (Examples 8-9); type: cell-based; settings: for % number of osteoclast (vs. solvent control group): 0.1 μM each, day 7; for activity at 0.1 µM: Mus musculus, Osteoclast, 168 h, Individual treatment (compounds), day 7, read-out: % number of osteoclast (vs. solvent control group)
Outline: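 Bone marrow cells from 6-8-week male ddY mice were co-cultured with ST2 stromal cells under 10^−8 M vitamin D3 and 10^−8 M dexamethasone, with compounds at 0.1 μM final (0.1% DMSO control), refreshed on days 3 and 5. On day 7, TRAP-positive osteoclasts with ≥6 nuclei were counted and expressed as % of solvent control (n=4).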

[3] = Mus musculus, Osteoclast, 168 h, individual treatment of Compound (0.1 μM), read-out: % number of osteoclast (vs. solvent control group)
[4] = combination treatment of alendronic acid (0.2 μM) with compound (0.1 μM)
[5] = combination treatment of clodronic acid (1 μM) with compound (0.1 μM)
[6] = combination treatment of etidronic acid (2 μM) with compound (0.1 μM)
[7] = combination treatment of ibandronic acid (0.1 μM) with compound (0.1 μM)
[8] = combination treatment of pamidronic acid (0.1 μM) with compound (0.1 μM)
[9] = combination treatment of risedronic acid (0.1 μM) with compound (0.1 μM)
[10] = combination treatment of zoledronic acid (0.01 μM) with compound (0.1 μM)
[11] = individual treatment of Compound (0.1 μM)
[12] = Combination treatment (alendronic acid + compounds)
[13] = Combination treatment (risedronic acid + compounds)

Row | SMILES | % number of osteoclast (vs. solvent control group) [2, 12] | % number of osteoclast (vs. solvent control group) [2, 13] | activity at 0.1 µM [2] | further results
1 | CC(C)c1sc(N2CCOCC2)nc1-c1ccc(OCCCCCOc2ccc(C(=N)NO)cc2)cc1 [Compound 169, N-hydroxy-4-{5-[4-(5-isopropyl-2-morpholino-1,3-thiazol-4-yl)phenoxy]pentyloxy}-benzamidine] | – | – | – | activity at 0.1 µM [1, 3]: 78%; % number of osteoclast (vs. solvent control group) [1, 4]: 44% and 44 ± 7.4*^#@ %; % number of osteoclast (vs. solvent control group) [1, 5]: 59% and 59 ± 14.0*^#@ %; % number of osteoclast (vs. solvent control group) [1, 6]: 49% and 49 ± 9.7*^#@ %; % number of osteoclast (vs. solvent control group) [1, 7]: 54 ± 8.7*^#@ %; % number of osteoclast (vs. solvent control group) [1, 8]: 50% and 50 ± 8.7*^#@ %; % number of osteoclast (vs. solvent control group) [1, 9]: 42% and 42 ± 7.6*^#@ %; % number of osteoclast (vs. solvent control group) [1, 10]: 59 ± 8.2*^#@ %; % number of osteoclast (vs. solvent control group) [1, 11]: 78 ± 8.6 %
2 | Cc1nc(-c2ccc(OCCCCCOc3ccc(C(=N)NO)c(F)c3)cc2)c(C(C)C)s1 [Compound 187, N-hydroxy-2-fluoro-4-{5-[4-(5-isopropyl-2-methyl-1,3-thiazol-4-yl)-phenoxy]-pentyloxy}-benzamidine] | – | – | – | activity at 0.1 µM [1, 3]: 67%; % number of osteoclast (vs. solvent control group) [1, 4]: 32% and 32 ± 8.1*^#@ %; % number of osteoclast (vs. solvent control group) [1, 5]: 60 ± 15.2*^#@ %; % number of osteoclast (vs. solvent control group) [1, 6]: 41% and 41 ± 7.5*^#@ %; % number of osteoclast (vs. solvent control group) [1, 7]: 42% and 42 ± 8.1*^#@ %; % number of osteoclast (vs. solvent control group) [1, 8]: 47% and 47 ± 10.5*^#@ %; % number of osteoclast (vs. solvent control group) [1, 9]: 40% and 40 ± 6.6*^#@ %; % number of osteoclast (vs. solvent control group) [1, 10]: 43% and 43 ± 4.5*^#@ %; % number of osteoclast (vs. solvent control group) [1, 11]: 67% and 67 ± 7.4 %
3 | CN(CCN1CCOCC1)c1nc(-c2ccc(OCCCCCOc3ccc(C(=N)NO)cc3)cc2)c(CN2CCSCC2)s1 [Compound 314, N-hydroxy-4-[5-(4-{2-[methyl-(2-morpholin-4-yl-ethyl)-amino]-5-thiomorpholin-4-ylmethyl-thiazol-4-yl}-phenoxy)-pentyloxy]-benzamidine] | 15 ± 1.7^ab % | 9 ± 3.2^ac % | 43 ± 7% | –
4 | CC(C)NCc1sc(N(C)CCN2CCOCC2)nc1-c1ccc(OCCCCCOc2ccc(C(=N)NO)cc2)cc1 [Compound 317, N-hydroxy-4-[5-(4-{5-(isopropylamino-methyl)-2-[methyl-(2-morpholin-4-yl-ethyl)-amino]-thiazol-4-yl}-phenoxy)-pentyloxy]-benzamidine] | 18 ± 4.6^ab % | 16 ± 3.2^ac % | 45 ± 3.2% | –
5 | COCCNCc1sc(N(C)CCN2CCOCC2)nc1-c1ccc(OCCCCCOc2ccc(C(=N)NO)cc2)cc1 [Compound 318, N-hydroxy-4-[5-(4-{5-[(2-methoxy-ethylamino) -methyl]-2-[methyl-(2-morpholin-4-yl-ethyl)-amino]-thiazol-4-yl}-phenoxy) -pentyloxy]-benzamidine] | 27 ± 3.0^ab % | 12 ± 1.8^ac % | 43 ± 3.7% | –
6 | COCCN(C)c1nc(-c2ccc(OCCCCCOc3ccc(C(=N)NO)cc3)cc2)c(CN2CCOCC2)s1 [Compound 319, N-hydroxy-4-[5-(4-{2-[(2-methoxy-ethyl) -methyl-amino]-5-morpholin-4-ylmethyl-thiazol-4-yl}-phenoxy)-pentyloxy]-benzamidine] | 25 ± 2.6^ab % | 11 ± 3.3^ac % | 54 ± 5.9% | –
7 | CN(Cc1cccnc1)c1nc(-c2ccc(OCCCCCOc3ccc(C(=N)NO)cc3)cc2)c(CN2CCOCC2)s1 [Compound 321, N-hydroxy-4-(5-{4-[2-(methyl-pyridin-3-ylmethyl-amino)-5-morpholin-4-ylmethyl-thiazol-4-yl]-phenoxy}-pentyloxy)-benzamidine] | 19 ± 4.1^ab % | 18 ± 3.0^ac % | 48 ± 7% | –
8 | Cc1nc(-c2ccc(OCCCCCOc3ccc(C(=N)NO)cc3)cc2)c(N(C)C)s1 [Compound 326, N-hydroxy-4-{5-[4-(5-dimethylamino-2-methyl-thiazol-4-yl)-phenoxy]-pentyloxy}-benzamidine] | 34 ± 2.7^b % | 15 ± 6.0^ac % | 46 ± 11% | –
9 | N=C(NO)c1ccc(OCCCCCOc2ccc(-c3nc(-c4ccccc4)sc3N)cc2)cc1 [Compound 330, N-hydroxy-4-{5-[4-(5-amino-2-phenyl-thiazol-4-yl)-phenoxy]-pentyloxy}-benzamidine] | 23 ± 3.9^ab % | 12 ± 2.4^ac % | 46 ± 4.7% | –
10 | Cc1nc(-c2ccc(OCCCCCOc3ccc(C(=N)NO)cc3)cc2)c(N)s1 [Compound 331, N-hydroxy-4-{5-[4-(5-amino-2-methyl-thiazol-4-yl)-phenoxy]-pentyloxy}-benzamidine] | 18 ± 4.6^ab % | 7 ± 1.2^ac % | 43 ± 2.7% | –
11 | CNc1nc(-c2ccc(OCCCCCOc3ccc(C(=N)NO)cc3)cc2)c(CN2CCOCC2)s1 [Compound 335, N-hydroxy-4-{5-[4-(2-methylamino-5-morpholin-4-ylmethyl-thiazol-4-yl)-phenoxy]-pentyloxy}-benzamidine] | 41 ± 2.0^ab % | 23 ± 5.0^ac % | 54 ± 0.9% | –
12 | N=C(NO)c1ccc(OCCCCCOc2ccc(-c3nc(N4CCOCC4)sc3CN3CCOCC3)cc2)cc1 [Compound 336, N-hydroxy-4-{5-[4-(2-morpholin-4-yl-5-morpholin-4-ylmethyl-thiazol-4-yl)-phenoxy]-pentyloxy}-benzamidine] | 22 ± 3.2^ab % | 16 ± 3.0^ac % | 52 ± 4% | –
13 | N=C(NO)c1ccc(OCCCCCOc2ccc(-c3nc(N4CCCCC4)sc3N3CCOCC3)cc2)cc1 [Compound 337, N-hydroxy-4-{5-[4-(5-morpholin-4-yl-2-piperidin-1-yl-thiazol-4-yl)-phenoxy]-pentyloxy}-benzamidine] | 20 ± 3.0^ab % | 16 ± 3.6^ac % | 53 ± 3.7% | –
14 | O=P(O)(O)C(Cl)(Cl)P(=O)(O)O [clodronic acid, reference compound] | – | – | – | activity at 1 µM ([1]; Mus musculus, Osteoclast, 168 h, individual treatment of clodronic acid (1 μM), read-out: % number of osteoclast (vs. solvent control group)): 88%; % number of osteoclast (vs. solvent control group) ([1]; individual treatment of clodronic acid (1 μM)): 88 ± 9.7 %
15 | CC(O)(P(=O)(O)O)P(=O)(O)O [etidronic acid, reference compound] | – | – | – | activity at 2 µM ([1]; Mus musculus, Osteoclast, 168 h, individual treatment of etidronic acid (2 μM), read-out: % number of osteoclast (vs. solvent control group)): 86%; % number of osteoclast (vs. solvent control group) ([1]; individual treatment of etidronic acid (2 μM)): 86 ± 6.9 %
16 | CCCCCN(C)CCC(O)(P(=O)(O)O)P(=O)(O)O [ibandronic acid, reference compound] | – | – | – | activity at 0.1 µM ([1]; Mus musculus, Osteoclast, 168 h, individual treatment of ibandronic acid (0.1 μM), read-out: % number of osteoclast (vs. solvent control group)): 77%; % number of osteoclast (vs. solvent control group) ([1]; individual treatment of ibandronic acid (0.1 μM)): 77 ± 8.2 %
17 | NCCC(O)(P(=O)(O)O)P(=O)(O)O [pamidronic acid, reference compound] | – | – | – | activity at 0.1 µM ([1]; Mus musculus, Osteoclast, 168 h, individual treatment of pamidronic acid (0.1 μM), read-out: % number of osteoclast (vs. solvent control group)): 82%; % number of osteoclast (vs. solvent control group) ([1]; individual treatment of pamidronic acid (0.1 μM)): 82 ± 6.7 %
18 | O=P(O)(O)C(O)(Cn1ccnc1)P(=O)(O)O [zoledronic acid, reference compound] | – | – | – | activity at 0.01 µM ([1]; Mus musculus, Osteoclast, 168 h, individual treatment of zoledronic acid (0.01 μM), read-out: % number of osteoclast (vs. solvent control group)): 84%; % number of osteoclast (vs. solvent control group) ([1]; individual treatment of zoledronic acid (0.01 μM)): 84 ± 4.1 %
